Assay results taken from patent US12331121B2, “Efflux pump-cancer antigen multi-specific antibodies and compositions, reagents, kits and methods related thereto” (William Robert Arathoon Living Trust Dated August 29, 2016, priority 2019, dated 2025).

Columns and labels:
[1] = test system: human red blood cells (RBCs); experiment: Binding to human erythrocytes; settings: FIG. 22A; in contrast to anti-CD47 5F9
HeyT30 cells = experiment: HeyT30 tumors in mice; format: in vivo; settings: FIG. 19
Excerpt: The BisP1.1 bispecific antibody was efficacious against two additional multidrug resistant (MDR) cancer cell lines in xenograft studies. The A2780ADR MDR cancer cell line expresses both CD47 and ABCB1. The HeyT30 MDR cancer cell line also expresses both CD47 and ABCB1 but at a lower level compared to A2780ADR cells (FIGS. 16 and 17). Both the A2780ADR and the HeyT30 cell lines are of ovarian origin. PE-conjugated, commercially available anti-MDR1 and anti-CD47 reagent antibodies were used; for MDR1, Biolegend Cat. No. 348606 and, CD47, Biolegend Cat. No. 323108.
A2780ADR MDR cancer cell line and HeyT30 MDR cancer cell line were injected into mice according to protocols described in Example 3. Mice were treated with BisP1.1 bispecific antibody with or without paclitaxel.

[2] = test system: 293 KT14-KO and KPB1-KD cells; experiment: FACS binding to cells with only one target present; design: species or system human; settings: CD47 knock-out or Pgp knock-down 293T cells, FIG. 4
Protocol: In FIG. 4A-4B, the binding of the bispecific antibody is shown by FACS analysis against a variety of cell lines. The first scan (left panel in FIG. 4A and FIG. 4B) illustrates binding of the antibody to cells co-expressing both targets, (Pgp and CD47). […] FIG. 4A-4B further show binding with titrated antibody concentrations of 600 nM, 200 nM, 66 nM, 7.4 nM and 2 nM, with the signal measured from isotype and no antibody control also provided. The respective antibody concentrations are indicated in the left panel of FIG. 4A and FIG. 4B, and the measured signal from these different concentrations are generally overlapping in the middle and right panels of FIGS. 4A and 4B. FIG. 4A and FIG. 4B represent results obtained from two different batches of antibody.

[3] = test system: multidrug resistant N6ADR cells; experiment: N6ADR tumors in mice (Example 5); format: in vivo
Protocol: Tumors formed by injecting multidrug resistant N6ADR cells in mice were treated by administering the anti-MDR1 antibody 15D3, with or without paclitaxel or administering KbisP1.1 with or without paclitaxel.

[4] = test system: multidrug resistant N6ADR cells; experiment: N6ADR tumor volume in mice (Example 2, FIG. 9); format: in vivo; settings: antibody on day 0, 4, 7, 11; no chemotherapeutic agent
Protocol: N6ADR cells were injected into a cohort of 6 mice per test group prior to administration of the indicated antibodies. The antibodies were administered once palpable tumors reached a size of about 100-150 mm^3 (about 7 days after injection of tumor cells). Antibodies were administered on day 0, day 4, day 7, and day 11. Tumor volumes were measured and are plotted. Panel A: 15D3/MRK16 monoclonal anti-MDR1 antibody. Panel B: KT14/MRK16 monoclonal anti-CD47 antibody. Panel C: Co-administration of 15D3/MRK16 monoclonal anti-MDR1 antibody and KT14/MRK16 monoclonal anti-CD47 antibody. Panel D: KbisP1.1 antibody.
The indicated antibodies were administered with or without the chemotherapeutic agent paclitaxel. Antibody was dosed about 1-4 hrs prior to Paclitaxel.

KBisP1.1: bispecific anti-MDR1/anti-CD47 antibody: 15D3 heavy chain, 5F9 (KT14) heavy chain, common MRK16 light chain, human IgG1
binding to human erythrocytes [1]: no significant binding
tumor volume (HeyT30 cells; higher concentration of the antibody): efficacious with and without paclitaxel
tumor volume (HeyT30 cells; lower concentration of the antibody): efficacious in reducing HeyT30 MDR cancer cell tumor volume with paclitaxel
FACS binding when only one of the targets is present [2]: does not show significant binding
FACS binding when only one of the targets is present ([2]; listed as HC-15D3:HC-5F9:LC-MRK16): significantly reduced binding
chemo-sensitization of N6ADR tumor to paclitaxel ([3]; FIG. 21): dose-dependent
efficacy against N6ADR cell tumors ([3]; with or without paclitaxel, FIG. 20): more efficacious than the 15D3 antibody
effect on tumor volume without paclitaxel [4]: more efficacious than the co-administration
